Reference: US7915291B2, “Hepatitis C virus inhibitors” (Bristol-Myers Squibb Company, priority 2002, dated 2011)
Like-named read-outs stand apart in the source and are kept apart here.

Experiments:
[1] = molecular target: HCV NS3/4A protease complex, BMS strain (UniProt P27958, C1454S/C1711G, species not given/STRAIN_BMS); assay: Recombinant HCV NS3/4A protease complex FRET peptide assay (BMS strain); type: biochemical, HCV genotype 1a
Summary of the method: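 Recombinant BMS-strain NS3/4A (His-tagged NS4A with three-lysine tail, E. coli) at 2-3 nM preincubated 1 min with compound, then 2 μM ester-linked NS4A/NS4B-based FRET peptide added. Fluorescence followed in real time ~15 min at 25° C. Percent inhibition from slope of linear fluorescence change versus no-compound control.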

[2] = system: HCV replicon in Huh7 cells; assay: HCV replicon cell-based assay; parameters: species or system HCV strain 1B; details: Hepatitis C virus, Huh-7; HCV replicon, Huh7 cells; read-out: EC50 range
[3] = NS3/4A BMS strain; read-out: IC50 range
[4] = read-out: IC50 range; NS3/4A BMS strain

SMILES	IC50 [1, 3] [nM]	EC50 [2] [nM]	IC50 [1, 4] [nM]
C=C[C@@H]1C[C@]1(NC(=O)[C@@H]1CC(Oc2nccc3cc(OC)ccc23)CN1C(=O)[C@@H](NC(=O)OC(C)(C)C)C(C)(C)O)C(=O)NS(=O)(=O)C1CC1 (stereo partly drawn) [Compound 89]	< 100	< 100	–
C=C[C@@H]1C[C@]1(NC(=O)[C@@H]1CC(Oc2nccc3cc(OC)ccc23)CN1C(=O)[C@@H](NC(=O)OC(C)(C)C)[C@@H](C)O)C(=O)NS(=O)(=O)C1CC1 (stereo partly drawn) [Compound 91]	< 100	100 to 1000	–
C=C[C@@H]1C[C@]1(NC(=O)[C@@H]1C[C@@H](Oc2nccc3cc(OC)ccc23)CN1C(=O)[C@@H](NC(=O)OC(C)(C)C)[C@@H](C)OC)C(=O)NS(=O)(=O)C1CC1 [Compound 92]	< 100	< 100	–
C=C[C@@H]1C[C@]1(NC(=O)[C@@H]1C[C@@H](Oc2nccc3cc(OC)ccc23)CN1C(=O)[C@@H](NC(=O)OC(C)(C)C)[C@@H](C)OC(C)(C)C)C(=O)NS(=O)(=O)C1CC1 [Compound 93]	100 to 1000	100 to 1000	–
C=C[C@@H]1C[C@]1(NC(=O)[C@@H]1C[C@@H](Oc2nccc3cc(OC)ccc23)CN1C(=O)[C@@H](NC(=O)OC(C)(C)C)[C@H](C)OC)C(=O)NS(=O)(=O)C1CC1 [Compound 94]	< 100	< 100	–
C=C[C@@H]1C[C@]1(NC(=O)[C@@H]1C[C@@H](Oc2nccc3cc(OC)ccc23)CN1C(=O)[C@@H](NC(=O)OC(C)(C)C)[C@H](C)O)C(=O)NS(=O)(=O)C1CC1 [Compound 95]	< 100	100 to 1000	–
C=C[C@@H]1C[C@]1(NC(=O)[C@@H]1C[C@@H](Oc2nccc3cc(OC)ccc23)CN1C(=O)[C@@H](NC(=O)OC(C)(C)C)[C@H](C)OCC)C(=O)NS(=O)(=O)C1CC1 [Compound 96]	–	< 100	< 100
C=C[C@@H]1C[C@]1(NC(=O)[C@@H]1C[C@@H](Oc2nccc3cc(OC)ccc23)CN1C(=O)[C@@H](NC(=O)OC(C)(C)C)[C@H](C)OC(C)(C)C)C(=O)NS(=O)(=O)C1CC1 [Compound 97]	< 100	< 100	–
C=C[C@@H]1C[C@]1(NC(=O)[C@@H]1C[C@@H](Oc2nccc3cc(OC)ccc23)CN1C(=O)[C@@H](N)[C@H](C)OC)C(=O)NS(=O)(=O)C1CC1 [Compound 100]	–	1000 to 10000	100 to 1000
C=C[C@@H]1C[C@]1(NC(=O)[C@@H]1C[C@@H](Oc2nccc3cc(OC)ccc23)CN1C(=O)[C@@H](NC(=O)NC(C)(C)C)[C@H](C)OC)C(=O)NS(=O)(=O)C1CC1 [Compound 101]	–	< 100	< 100
C=C[C@@H]1C[C@]1(NC(=O)[C@@H]1C[C@@H](Oc2nccc3cc(OC)ccc23)CN1C(=O)[C@@H](NC(=O)NC(C)(C)CC)[C@H](C)OC)C(=O)NS(=O)(=O)C1CC1 [Compound 102]	< 100	< 100	–
C=C[C@@H]1C[C@]1(NC(=O)[C@@H]1C[C@@H](Oc2nccc3cc(OC)ccc23)CN1C(=O)[C@@H](NC(=O)NC1CCCC1)[C@H](C)OC)C(=O)NS(=O)(=O)C1CC1 [Compound 103]	< 100	< 100	–
C=C[C@@H]1C[C@]1(NC(=O)[C@@H]1C[C@@H](Oc2nccc3cc(OC)ccc23)CN1C(=O)[C@@H](NC(=O)OC1CCCC1)[C@H](C)OC)C(=O)NS(=O)(=O)C1CC1 [Compound 104]	–	< 100	< 100
C=C[C@@H]1C[C@]1(NC(=O)[C@@H]1C[C@@H](Oc2nccc3cc(OC)ccc23)CN1C(=O)[C@@H](NC(=O)OC(C)(C)CC)[C@H](C)OC)C(=O)NS(=O)(=O)C1CC1 [Compound 105]	–	< 100	< 100
C=C[C@@H]1C[C@]1(NC(=O)[C@@H]1C[C@@H](Oc2nccc3cc(OC)ccc23)CN1C(=O)[C@@H](NC(=O)OC(C)(C)C(F)(F)F)[C@H](C)OC)C(=O)NS(=O)(=O)C1CC1 [Compound 106]	< 100	< 100	–
C=C[C@@H]1C[C@]1(NC(=O)[C@@H]1CC(Oc2nc(-c3ccccc3)cc3ccccc23)CN1C(=O)[C@@H](NC(=O)OC(C)(C)C)[C@H](C)O)C(=O)NS(=O)(=O)C1CC1 (stereo partly drawn) [Compound 107]	–	100 to 1000	< 100
C=C[C@@H]1C[C@]1(NC(=O)[C@@H]1CC(Oc2nc(-c3ccccc3)cc3ccccc23)CN1C(=O)[C@@H](NC(=O)OC(C)(C)C)[C@H](C)OC)C(=O)NS(=O)(=O)C1CC1 (stereo partly drawn) [Compound 108]	< 100	< 100	–
C=C[C@@H]1C[C@]1(NC(=O)[C@@H]1CC(Oc2nc(-c3ccccc3)cc3ccccc23)CN1C(=O)[C@@H](NC(=O)OC(C)(C)C)[C@H](C)OCC)C(=O)NS(=O)(=O)C1CC1 (stereo partly drawn) [Compound 109]	< 100	< 100	–
C=C[C@@H]1C[C@]1(NC(=O)[C@@H]1C[C@@H](Oc2nccc3cc(OC)ccc23)CN1C(=O)[C@@H](NC(=O)OC(C)(C)C)[C@@H](C)OCc1ccccc1)C(=O)NS(=O)(=O)C1CC1 [Compound 110]	< 100	100 to 1000	–
C=C[C@@H]1C[C@]1(NC(=O)[C@@H]1C[C@@H](Oc2nccc3ccccc23)CN1C(=O)[C@@H](NC(=O)Oc1ccc(C)cc1)C(C)(C)C)C(=O)NS(=O)(=O)C1CC1 [Compound 120]	< 100	100 to 1000	–

SMILES	IC50 [1, 3] [nM]	EC50 [2] [nM]	IC50 [1, 4] [nM]
C=C[C@@H]1C[C@]1(NC(=O)[C@@H]1C[C@@H](Oc2nccc3ccccc23)CN1C(=O)[C@@H](NC(=O)Oc1ccccc1)C(C)(C)C)C(=O)NS(=O)(=O)C1CC1 [Compound 121]	< 100	100 to 1000	–
C=C[C@@H]1C[C@]1(NC(=O)[C@@H]1C[C@@H](Oc2nccc3ccccc23)CN1C(=O)[C@@H](NC(=O)Oc1ccc(F)cc1)C(C)(C)C)C(=O)NS(=O)(=O)C1CC1 [Compound 122]	< 100	100 to 1000	–
C=C[C@@H]1C[C@]1(NC(=O)[C@@H]1C[C@@H](Oc2nccc3ccccc23)CN1C(=O)[C@@H](NC(=O)Oc1ccc(OC)cc1)C(C)(C)C)C(=O)NS(=O)(=O)C1CC1 [Compound 123]	< 100	100 to 1000	–
C=C[C@@H]1C[C@]1(NC(=O)[C@@H]1C[C@@H](Oc2nccc3ccccc23)CN1C(=O)[C@@H](NC(=O)OCCOC)C(C)(C)C)C(=O)NS(=O)(=O)C1CC1 [Compound 124]	100 to 1000	1000 to 10000	–
C=C[C@@H]1C[C@]1(NC(=O)[C@@H]1C[C@@H](Oc2nccc3ccccc23)CN1C(=O)[C@@H](NC(=O)OCC(C)(C)C)C(C)(C)C)C(=O)NS(=O)(=O)C1CC1 [Compound 125]	< 100	< 100	–
C=C[C@@H]1C[C@]1(NC(=O)[C@@H]1C[C@@H](Oc2nccc3ccccc23)CN1C(=O)[C@@H](NC(=O)OCCF)C(C)(C)C)C(=O)NS(=O)(=O)C1CC1 [Compound 126]	< 100	100 to 1000	–
C=C[C@@H]1C[C@]1(NC(=O)[C@@H]1C[C@@H](Oc2nccc3ccccc23)CN1C(=O)[C@@H](NC(=O)Oc1ccccc1OC)C(C)(C)C)C(=O)NS(=O)(=O)C1CC1 [Compound 127]	< 100	100 to 1000	–
C=C[C@@H]1C[C@]1(NC(=O)[C@@H]1C[C@@H](Oc2nccc3ccccc23)CN1C(=O)[C@@H](NC(=O)O[C@@H]1C[C@H](C)CC[C@H]1C(C)C)C(C)(C)C)C(=O)NS(=O)(=O)C1CC1 [Compound 128]	< 100	100 to 1000	–
C=C[C@@H]1C[C@]1(NC(=O)[C@@H]1C[C@@H](Oc2nccc3ccccc23)CN1C(=O)[C@@H](NC(=O)OCCCCCC)C(C)(C)C)C(=O)NS(=O)(=O)C1CC1 [Compound 129]	100 to 1000	100 to 1000	–
C=C[C@@H]1C[C@]1(NC(=O)[C@@H]1C[C@@H](Oc2nccc3ccccc23)CN1C(=O)[C@@H](NC(=O)CC(C)(C)C)C(C)(C)C)C(=O)NS(=O)(=O)C1CC1 [Compound 130]	< 100	100 to 1000	–
C=C[C@@H]1C[C@]1(NC(=O)[C@@H]1C[C@@H](Oc2nccc3ccccc23)CN1C(=O)[C@@H](NC(=O)COC)C(C)(C)C)C(=O)NS(=O)(=O)C1CC1 [Compound 131]	100 to 1000	1000 to 10000	–
C=C[C@@H]1C[C@]1(NC(=O)[C@@H]1C[C@@H](Oc2nccc3ccccc23)CN1C(=O)[C@@H](NC(=O)CCOC)C(C)(C)C)C(=O)NS(=O)(=O)C1CC1 [Compound 132]	< 100	1000 to 10000	–
C=C[C@@H]1C[C@]1(NC(=O)[C@@H]1C[C@@H](Oc2nccc3ccccc23)CN1C(=O)[C@@H](NC(=O)[C@@H]1COc2ccccc2O1)C(C)(C)C)C(=O)NS(=O)(=O)C1CC1 [Compound 133]	100 to 1000	1000 to 10000	–
C=C[C@@H]1C[C@]1(NC(=O)[C@@H]1C[C@@H](Oc2nccc3cc(OC)ccc23)CN1C(=O)[C@@H](NC(=O)OC(C)(C)C)c1ccccc1)C(=O)NS(=O)(=O)C1CC1 [Compound 134]	< 100	100 to 1000	–
C=C[C@@H]1C[C@]1(NC(=O)[C@@H]1C[C@@H](Oc2nccc3cc(OC)ccc23)CN1C(=O)[C@H](CC(=O)OCc1ccccc1)NC(=O)OC(C)(C)C)C(=O)NS(=O)(=O)C1CC1 [Compound 137]	< 100	< 100	–
C=C[C@@H]1C[C@]1(NC(=O)[C@@H]1C[C@@H](Oc2nccc3cc(OC)ccc23)CN1C(=O)[C@H](CC(=O)OC)NC(=O)OC(C)(C)C)C(=O)NS(=O)(=O)C1CC1 [Compound 138]	< 100	< 100	–
C=C[C@@H]1C[C@]1(NC(=O)[C@@H]1C[C@@H](Oc2nccc3cc(OC)ccc23)CN1C(=O)[C@H](CC(=O)OC(C)(C)C)NC(=O)OC(C)(C)C)C(=O)NS(=O)(=O)C1CC1 [Compound 139]	< 100	100 to 1000	–
C=C[C@@H]1C[C@]1(NC(=O)[C@@H]1C[C@@H](Oc2nccc3cc(OC)ccc23)CN1C(=O)[C@H](CC(=O)O)NC(=O)OC(C)(C)C)C(=O)NS(=O)(=O)C1CC1 [Compound 140]	< 100	1000 to 10000	–
C=C[C@@H]1C[C@]1(NC(=O)[C@@H]1C[C@@H](Oc2nccc3cc(OC)ccc23)CN1C(=O)C(NC(=O)N[C@H](C(=O)OC)C(C)C)C(C)(C)C)C(=O)NS(=O)(=O)C1CC1 (stereo partly drawn) [Compound 141]	< 100	< 100	–
